The source of these data is patent US20230257351A1, “SUBSTITUTED N-[…] HAVING P2X4 RECEPTOR ANTAGONISTIC ACTIVITY” (Bayer Aktiengesellschaft, priority 2020, published 2023).

One assay concerns the target T1, human P2X4 (Homo sapiens, UniProt Q99571).
T1 construct: expressed in transfected cells
T1 sequence (Q99571 1-388): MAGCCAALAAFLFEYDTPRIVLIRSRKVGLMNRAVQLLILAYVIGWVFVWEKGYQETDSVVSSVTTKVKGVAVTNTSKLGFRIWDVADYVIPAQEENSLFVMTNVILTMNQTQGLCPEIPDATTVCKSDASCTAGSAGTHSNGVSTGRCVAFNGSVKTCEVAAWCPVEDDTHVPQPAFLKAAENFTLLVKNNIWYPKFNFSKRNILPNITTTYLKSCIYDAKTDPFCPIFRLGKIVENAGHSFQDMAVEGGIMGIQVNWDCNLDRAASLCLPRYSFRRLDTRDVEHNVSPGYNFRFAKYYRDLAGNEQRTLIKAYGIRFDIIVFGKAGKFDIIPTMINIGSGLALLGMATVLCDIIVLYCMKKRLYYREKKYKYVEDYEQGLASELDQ
In words: Human P2X4 HEK Cell FLIPR Assay. The following applies: HEK293 stably expressing human P2X4, agonist Bz-ATP 3 μM (EC80); for IC50: read-out: Human P2X4 HEK Cells (FLIPR Assay) avg IC50. The class given is cell-based. An outline of the steps:
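HEK293 cells stably expressing human P2X4 were loaded with Fluo8-AM (30 min, 37 °C, HBSS/HEPES pH 7.4 with probenecid), then preincubated 30 min at room temperature with compound, 25 μM–1 nM final, 0.5% DMSO. Bz-ATP-evoked calcium fluorescence was read on FLIPR; data were normalized to agonist control and given a four-parameter fit for IC50.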

A further assay has as its target T2, rat P2X4 (Rattus norvegicus, UniProt P51577).
T2 construct: expressed in transfected cells
T2 sequence (P51577 1-388): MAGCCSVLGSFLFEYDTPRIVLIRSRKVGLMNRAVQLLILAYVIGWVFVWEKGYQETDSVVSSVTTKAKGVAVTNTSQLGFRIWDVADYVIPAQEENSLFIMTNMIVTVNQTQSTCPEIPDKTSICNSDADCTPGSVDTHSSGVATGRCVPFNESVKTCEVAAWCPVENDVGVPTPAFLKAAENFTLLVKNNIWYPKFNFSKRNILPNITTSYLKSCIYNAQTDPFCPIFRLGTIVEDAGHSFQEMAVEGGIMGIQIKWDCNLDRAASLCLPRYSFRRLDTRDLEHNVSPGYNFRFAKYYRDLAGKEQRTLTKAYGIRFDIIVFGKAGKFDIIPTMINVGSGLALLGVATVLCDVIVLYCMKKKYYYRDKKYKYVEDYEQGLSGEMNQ
As to the kind of experiment: FLIPR Method for Rat P2X4 1321N1 Astrocytoma Cells. The format is cell-based. The settings on record: 1321N1 stably expressing rat P2X4; agonist MgATP 5 μM (EC80). How it is done: Compounds were tested on a 1321N1 cell line stably expressing rat P2X4. Cells were cultured on collagen-I-coated 384-well plates at a density of 10,000 cells/well and incubated overnight at 37° C., 5% CO2. P2X4 function was assessed by measuring intracellular calcium fluxes caused by Magnesium-ATP (MgATP) using the calcium-chelating dye Fluo8-AM (Molecular Devices) with the Fluorescent Imaging Plate Reader Tetra (FLIPR^Tetra; Molecular Devices CA). On the day of the assay, the medium was removed and the cells were incubated for 30 minutes at 37° C. and 5% CO2 in 30 μl of dye buffer (Hank's balanced salt solution, 10 mM HEPES, 1.8 mM CaCl2, 1 mM MgCl2, 2 mM probenecid, 5 mM D-glucose monohydrate, 5 μM Fluo8-AM, pH=7.4).
Compounds diluted in probenecid buffer (Hank's balanced salt solution, 10 mM HEPES, 1.8 mM CaCl2, 1 mM MgCl2, 2 mM probenecid, 5 mM D-glucose monohydrate, pH=7.4) at ten concentrations ranging from 25 μM to 1 nM (final concentration) were dispensed and incubated for 30 minutes at room temperature. The agonist, MgATP (Sigma-Aldrich Chemie GmbH, DE), was added at a final concentration of 5 μM, representing the EC80 routinely determined. The final assay volume was 50 μl and final DMSO concentration was 0.5%.
The fluorescence intensity reflecting intracellular calcium changes was recorded before and after MgATP addition, at an excitation and emission wavelengths of 470-495 nm and 515-575 nm respectively.
The compounds were tested in triplicates and fluorescence intensity raw data normalized to the agonist control and fitted to the four-parameter logistic equation:
Y=Bottom+(Top−Bottom)/(1+10^((Log IC50−X)*HillSlope))
Assay plate acceptance was based on the signal window (S/B)[…] and the reference compound pIC50 within ±[…] the mean of historic pIC50 of the compound. Failure to meet two of the three criteria determined exclusion of the plate's results. In Table 10 below the results for the assays are reported

Usually IC50 stands for the point on the concentration scale where inhibition reaches its midpoint.

As to `CC(=O)N(c1ccc(F)cc1)c1cc(NC(=O)Cc2c(C)cccc2C)ccn1` [Example 34, N-{4-[2-(2,6-dimethylphenyl)acetamido]pyridin-2-yl}-N-(4-fluorophenyl)acetamide], at human P2X4, the “Human P2X4 HEK Cells (FLIPR Assay) avg Efficacy” value (shortened to “Human P2X4 HEK Cells”) came to 97% and the IC50 is 199 nM. Moreover, on rat P2X4, the IC50 was 170 nM and the “Rat P2X4 1321N1 Astrocytoma Cells (FLIPR Assay) avg Efficacy” value (“Rat P2X4 1321N1 Astrocytoma Cells” below) turned out to be 94%.

For the compound `CC(=O)N(c1ccc(F)cc1)c1cc(NC(=O)Cc2ccccc2Cl)ccn1` [Example 36, N-{4-[2-(2-chlorophenyl)acetamido]pyridin-2-yl}-N-(4-fluorophenyl)acetamide], on human P2X4, the “Human P2X4 HEK Cells” value came out at 91% and the IC50 was 206 nM. At rat P2X4, the concentration for half-maximal inhibition (IC50) turned out to be 290 nM and the “Rat P2X4 1321N1 Astrocytoma Cells” value is recorded as 90%.

As for `CC(=O)N(c1ccc(F)cc1)c1cc(NC(=O)Cc2ccc(F)cc2Cl)ccn1` [Example 37, N-{4-[2-(2-chloro-4-fluorophenyl)acetamido]pyridin-2-yl}-N-(4-fluorophenyl)acetamide], at human P2X4, the “Human P2X4 HEK Cells” value was 95% and the IC50 was determined as 894 nM. At rat P2X4, the IC50 stood at 242 nM and the “Rat P2X4 1321N1 Astrocytoma Cells” value turned out to be 96%.

In the case of `CC(=O)N(c1ccc(F)cc1)c1cc(NC(=O)Cc2c(Cl)cccc2Cl)ccn1` [Example 38, N-{4-[2-(2,6-dichlorophenyl)acetamido]pyridin-2-yl}-N-(4-fluorophenyl)acetamide], at human P2X4, the “Human P2X4 HEK Cells” value stood at 96% and the 50% inhibitory concentration (IC50) is 232 nM. In addition, at rat P2X4, the concentration for half-maximal inhibition (IC50) came out at 136 nM and the “Rat P2X4 1321N1 Astrocytoma Cells” value amounted to 98%.

As for `CC(=O)N(c1ccc(F)cc1)c1cc(NC(=O)Cc2c(Cl)cc(F)cc2Cl)ccn1` [Example 39, N-{4-[2-(2,6-dichloro-4-fluorophenyl)acetamido]pyridin-2-yl}-N-(4-fluorophenyl)acetamide], at human P2X4, the “Human P2X4 HEK Cells” value is 100% and the half-inhibitory concentration (IC50) was 335 nM. Besides, at rat P2X4, the concentration for half-maximal inhibition (IC50) is 152 nM and the “Rat P2X4 1321N1 Astrocytoma Cells” value was found to be 98%.

For `CC(=O)N(c1ccc(F)cc1)c1cc(NC(=O)Cc2c(F)cccc2Cl)ccn1` [Example 40, N-{4-[2-(2-chloro-6-fluorophenyl)acetamido]pyridin-2-yl}-N-(4-fluorophenyl)acetamide], on human P2X4, the “Human P2X4 HEK Cells” value was 90% and the concentration for half-maximal inhibition (IC50) was determined as 308 nM. Moreover, at rat P2X4, the concentration for half-maximal inhibition (IC50) turned out to be 194 nM and the “Rat P2X4 1321N1 Astrocytoma Cells” value is 75%.

Take `CC(=O)N(c1ccc(F)cc1)c1cc(NC(=O)Cc2c(F)cc(F)cc2Cl)ccn1` [Example 41, N-{4-[2-(2-chloro-4,6-difluorophenyl)acetamido]pyridin-2-yl}-N-(4-fluorophenyl)acetamide]: at human P2X4, the “Human P2X4 HEK Cells” value is 94% and the IC50 stood at 589 nM. On rat P2X4, the IC50 came to 115 nM and the “Rat P2X4 1321N1 Astrocytoma Cells” value is 91%.

In the case of `CC(=O)N(c1ccc(F)cc1)c1cc(NC(=O)Cc2ccccc2OC(F)(F)F)ccn1` [Example 42, N-(4-fluorophenyl)-N-(4-{2-[2-(trifluoromethoxy)phenyl]acetamido}pyridin-2-yl)acetamide], on human P2X4, the “Human P2X4 HEK Cells” value is 98% and the half-maximal inhibitory concentration (IC50) stood at 350 nM. Further, on rat P2X4, the half-maximal inhibitory concentration (IC50) was 1360 nM and the “Rat P2X4 1321N1 Astrocytoma Cells” value amounted to 96%.

As to `CC(=O)N(c1ccc(C)cc1)c1cc(NC(=O)Cc2cccc(F)c2Cl)ccn1` [Example 45, N-{4-[2-(2-chloro-3-fluorophenyl)acetamido]pyridin-2-yl}-N-(4-methylphenyl)acetamide], on human P2X4, the “Human P2X4 HEK Cells” value was found to be 102% and the IC50 came to 485 nM. In addition, on rat P2X4, the IC50 is 1180 nM and the “Rat P2X4 1321N1 Astrocytoma Cells” value was 100%.

In the case of `CC(=O)N(c1ccc(F)c(Cl)c1)c1cc(NC(=O)Cc2ccccc2Cl)ccn1` [Example 50, N-(3-chloro-4-fluorophenyl)-N-{4-[2-(2-chlorophenyl)acetamido]pyridin-2-yl}acetamide], at human P2X4, the “Human P2X4 HEK Cells” value was 95% and the half-maximal inhibitory concentration (IC50) was determined as 351 nM. Also, on rat P2X4, the IC50 is 213 nM and the “Rat P2X4 1321N1 Astrocytoma Cells” value is 96%.

As to `CC(=O)N(c1ccc(F)c(Cl)c1)c1cc(NC(=O)Cc2ccc(F)cc2Cl)ccn1` [Example 51, N-(3-chloro-4-fluorophenyl)-N-{4-[2-(2-chloro-4-fluorophenyl)acetamido]pyridin-2-yl}acetamide], on human P2X4, the “Human P2X4 HEK Cells” value was 98% and the half-inhibitory concentration (IC50) was 493 nM. At rat P2X4, the half-maximal inhibitory concentration (IC50) is 177 nM and the “Rat P2X4 1321N1 Astrocytoma Cells” value is recorded as 96%.

As for `CC(=O)N(c1ccc(F)c(Cl)c1)c1cc(NC(=O)Cc2cccc(F)c2Cl)ccn1` [Example 52, N-(3-chloro-4-fluorophenyl)-N-{4-[2-(2-chloro-3-fluorophenyl)acetamido]pyridin-2-yl}acetamide], at human P2X4, the “Human P2X4 HEK Cells” value was 98% and the IC50 amounted to 355 nM. Besides, on rat P2X4, the IC50 came to 358 nM and the “Rat P2X4 1321N1 Astrocytoma Cells” value was 99%.

For the compound `CC(=O)N(c1ccc(F)c(Cl)c1)c1cc(NC(=O)Cc2c(Cl)cccc2Cl)ccn1` [Example 53, N-(3-chloro-4-fluorophenyl)-N-{4-[2-(2,6-dichlorophenyl)acetamido]pyridin-2-yl}acetamide], on human P2X4, the “Human P2X4 HEK Cells” value is on record as 100% and the half-maximal inhibitory concentration (IC50) is 455 nM. Moreover, on rat P2X4, the IC50 stood at 143 nM and the “Rat P2X4 1321N1 Astrocytoma Cells” value amounted to 100%.

Consider `CC(=O)N(c1cccc(F)c1)c1cc(NC(=O)Cc2ccccc2Cl)ccn1` [Example 54, N-{4-[2-(2-chlorophenyl)acetamido]pyridin-2-yl}-N-(3-fluorophenyl)acetamide], for which, at human P2X4, the “Human P2X4 HEK Cells” value turned out to be 97% and the half-maximal inhibitory concentration (IC50) turned out to be 269 nM. Moreover, at rat P2X4, the IC50 turned out to be 447 nM and the “Rat P2X4 1321N1 Astrocytoma Cells” value is listed as 97%.

For `CC(=O)N(c1cccc(F)c1)c1cc(NC(=O)Cc2ccc(F)cc2Cl)ccn1` [Example 55, N-{4-[2-(2-chloro-4-fluorophenyl)acetamido]pyridin-2-yl}-N-(3-fluorophenyl)acetamide], on human P2X4, the “Human P2X4 HEK Cells” value came out at 102% and the concentration for half-maximal inhibition (IC50) is 611 nM. Moreover, on rat P2X4, the IC50 came out at 289 nM and the “Rat P2X4 1321N1 Astrocytoma Cells” value stood at 99%.

Regarding `CC(=O)N(c1cccc(F)c1)c1cc(NC(=O)Cc2c(Cl)cccc2Cl)ccn1` [Example 56, N-{4-[2-(2,6-dichlorophenyl)acetamido]pyridin-2-yl}-N-(3-fluorophenyl)acetamide], on human P2X4, the “Human P2X4 HEK Cells” value amounted to 97% and the IC50 was 260 nM. Besides, at rat P2X4, the IC50 amounted to 190 nM and the “Rat P2X4 1321N1 Astrocytoma Cells” value turned out to be 98%.
